# Reference: patent publication US20230330151A1, “COMPOSITION FOR PROMOTING DIFFERENTIATION OF NEURAL STEM CELLS INTO DOPAMINERGIC NEURONS” (CHA UNIVERSITY INDUSTRY-ACADEMIC COOPERATION FOUNDATION, priority 2020, published 2023)
# What was measured:
# [1] = tested on: FMD-NSPCs (fetal midbrain derived neural stem/progenitor cells); test: Differentiation of neural stem cells into dopaminergic neurons, immunochemical staining for TH and Tuj1; assay type: cell-based, human; conditions: FIG. 3; FA: 0.1 mM; over time of differentiation
# FMD-NPCs = test: Differentiation rate by subculture number, TH expression measured by fluorescence intensity; assay type: cell-based, human; conditions: FIG. 11; as the cells were subcultured
# From the text: For each group, neural stem cells (A) subcultured less than 10 times, (B) subcultured 10 or more times and 20 or less times, (C) subcultured 20 or more times were used to compare average values, to compare and analyze differentiation rates according to a subcultured number.
smiles,measurement,setting,value
"CCCCc1ccc(C(=O)O)nc1 [FA alone, 5-butylpicolinic acid]",Tuj1 expression,[1],increased over time
same,expression of TH,[1],decreased over time
same,rate of differentiation into TH,FMD-NPCs,gradually decreased
